Results reported in publication PMC5589090 (PLoS Medicine, 2017).
Several values for one entry are separate records, joined by “and”; a condition that tells them apart may be missing. Identical values can stand only once. Like-named read-outs stand apart in the source and are kept apart here.

Experiments:
lung tumor = system: lung tumor; set-up: method as in ref 91 (a number printed in a supplementary file, which may have a reference list of its own: not looked up in the article's list); details: cited from earlier work
KG1a = details: cited from earlier work
[1] = set-up: method as in ref 72 (a number printed in a supplementary file, which may have a reference list of its own: not looked up in the article's list); details: cited from earlier work
[2] = cited from earlier work
immortal phenotype = system: immortal phenotype; set-up: method as in ref 93 (a number printed in a supplementary file, which may have a reference list of its own: not looked up in the article's list); details: cited from earlier work
[3] = cited from earlier work; remark: listed apart in the source
[4] = Decitabine storage and solution stability; assay type: physicochemical; details: 18 months at -20 °C
thyroid carcinoma = system: thyroid carcinoma; set-up: method as in ref 95 (a number printed in a supplementary file, which may have a reference list of its own: not looked up in the article's list); details: cited from earlier work
[5] = Blood counts, clinical pathology (total hemoglobin, reticulocytes, platelets, ANC, ALC, WBC); assay type: in vivo, human; details: cohorts 4 and 5, while total hemoglobin increased
Excerpt: Blood counts, blood chemistries, total bilirubin, HbF, LDH, and D-dimer levels were standard clinical pathology tests through the CLIA-certified Clinical Pathology Laboratory at the University of Illinois at Chicago.

DNMT1 = details: cited from earlier work
[6] = cited from earlier work; remark: listed apart in the source
[7] = set-up: method as in ref 99 (a number printed in a supplementary file, which may have a reference list of its own: not looked up in the article's list); details: cited from earlier work
[8] = Adverse events (CTCAE v 4.0), phase 1 trial NCT01685515 in SCD adults; details: cohorts 1-5
Excerpt: The primary endpoint was ≥ grade 3 non-hematologic toxicity.
For statistical comparisons of adverse events (AEs) between placebo and each dose group, we performed exact tests of the null hypothesis that the rate parameters of Poisson distributed AEs are equal. Relative risks are given as the ratio of such rate parameters. Thus, differences are insignificant if relative risks confidence intervals include 1. The R function poisson.test(), an exact test, was used. Pain, the most frequent AE, was analyzed similarly.

HbF = HbF levels by HPLC; assay type: in vivo, human
Excerpt: Blood counts, blood chemistries, total bilirubin, HbF, LDH, and D-dimer levels were standard clinical pathology tests through the CLIA-certified Clinical Pathology Laboratory at the University of Illinois at Chicago. […] For quantification of F-cells by flow cytometry, peripheral blood samples were fixed and stained with phycoerythrin-conjugated anti-HbF (Caltag) per manufacturer’s instructions. A normal adult negative control and cord blood positive control were run with each Becton-Dickinson FacsCalibur (Sunnyvale, CA) analysis.

[9] = cited from earlier work; remark: listed apart in the source
[10] = cited from earlier work; remark: listed apart in the source
[11] = per patient, SC 0.2 mg/kg 2x/week, 0.2 mg/kg
[12] = Table B1, baseline before treatment, per subject, r10 Mean ±SD
[13] = Table B1, last 20 of 36 weeks of treatment, per subject, r10 Mean ±SD

Nc1ncn([C@H]2C[C@H](O)[C@@H](CO)O2)c(=O)n1 [decitabine, 5-aza-2’-deoxycytidine]
reduction in tumor incidence (lung tumor): 23% | reduction in tumor multiplicity (lung tumor): 42% | DNMT1 protein expression (KG1a; 0.3 µM daily for 2-3 days): profoundly decreased DNMT1 protein expression | viability (KG1a; 0.3 µM daily for 2-3 days): did not decrease the viability | phospho-H2AX (KG1a; 0.3 µM, 3 days of treatment): an increase in phospho-H2AX was noted | Max F-cell% ([1]; SC decitabine, mean ± SD, r3 HU non-responders (n=3), r4 HU responders (n=5), r5 all patients (n=8)): 55.1 ± 11.1% and 81.2 ± 4.4% and 71.4 ± 6.5% | recovery from neutropenia ([1]; all subjects): within a week | Pre-tx HbF% ([1]; baseline, mean ± SD, r3 HU non-responders, r4 HU responders, r5 all patients): 2.4 ± 1.6% and 9.0 ± 2.5% and 6.5 ± 1.4% | local toxicity at SQ injection sites [1]: No local toxicity | bone marrow aspirate spicule cellularity with treatment ([1]; four subjects): no appreciable decrease | Total Hb, peak ([1]; mean ± 2SD, pre-treatment 7.6 ± 2): 9.6 ± 1.8 | Adh. to laminin, Pretherapy ([1]; mean ± SE, baseline): 3470 ± 500 RBCs/mm^2 | Adhesion to TSP, Pretherapy ([1]; mean ± SE, baseline): 1570 ± 170 RBCs/mm^2 | CRP, Pretherapy ([1]; mean ± SE, baseline): 1.25 ± 0.27 mg/dL | D-Dimer, Pretherapy ([1]; mean ± SE, baseline): 490 ± 90 ng/mL | F1+2, Pretherapy ([1]; mean ± SE, baseline): 1.75 ± 0.22 nmol/L | TAT, Pretherapy ([1]; mean ± SE, baseline): 7.0 ± 1.7 µg/L | VWFpp, Pretherapy ([1]; mean ± SE, baseline): 196 ± 26 u/dL | sVCAM, Pretherapy ([1]; mean ± SE, baseline): 1170 ± 140 ng/mL | Adh. to laminin, Post Cycle 1 ([1]; mean ± SE): 1950 ± 300 RBCs/mm^2 | Adh. to laminin, Post Cycle 2 ([1]; mean ± SE): 1570 ± 210 RBCs/mm^2 | Adhesion to TSP, Post Cycle 1 ([1]; mean ± SE): 690 ± 150 RBCs/mm^2 | Adhesion to TSP, Post Cycle 2 ([1]; mean ± SE): 910 ± 160 RBCs/mm^2 | CRP, Post Cycle 1 ([1]; mean ± SE): 1.19 ± 0.34 mg/dL | CRP, Post Cycle 2 ([1]; mean ± SE): 0.82 ± 0.26 mg/dL | D-Dimer, Post Cycle 1 ([1]; mean ± SE): 320 ± 50 ng/mL | D-Dimer, Post Cycle 2 ([1]; mean ± SE): 300 ± 50 ng/mL | F1+2, Post Cycle 1 ([1]; mean ± SE): 1.56 ± 0.16 nmol/L | F1+2, Post Cycle 2 ([1]; mean ± SE): 1.41 ± 0.15 nmol/L | TAT, Post Cycle 1 ([1]; mean ± SE): 8.6 ± 2.3 µg/L | TAT, Post Cycle 2 ([1]; mean ± SE): 5.2 ± 0.9 µg/L | VWFpp, Post Cycle 1 ([1]; mean ± SE): 156 ± 28 u/dL | VWFpp, Post Cycle 2 ([1]; mean ± SE): 144 ± 13 u/dL | sVCAM, Post Cycle 1 ([1]; mean ± SE): 930 ± 100 ng/mL | sVCAM, Post Cycle 2 ([1]; mean ± SE): 840 ± 100 ng/mL | nadir ANC, NCI grade 4 neutropenia ([1]; one patient): 400 µL⁻¹ | absolute reticulocyte count (ARC) during treatment ([1]; p=0.0006): decreased | total bilirubin during treatment ([1]; p=0.01): decreased | nadir ANC, grade 3 neutropenia ([1]; two patients): 800 µL⁻¹ | total hemoglobin (Hb), peak ([2]; SC 0.2 mg/kg 2x/week for 12 weeks, five patients, baseline 7.88 ± 0.88): 9.04 ± 0.77 g/dL | Absolute Retic count B/L ([2]; baseline, per patient): 1.65e+11 L⁻¹ and 1.55e+11 L⁻¹ and 1.63e+11 L⁻¹ and 1.96e+11 L⁻¹ and 1.06e+11 L⁻¹ | Annexin-V RBC B/L ([2]; baseline, per patient): 0% and 2% and 0.6% and 3.4% and 0.8% | EPO B/L ([2]; baseline, per patient): 197.8 mIU/ml and 25 mIU/ml and 241.4 mIU/ml and 186 mIU/ml and 86.6 mIU/ml | HbF B/L ([2]; baseline, per patient): 7 g/dL and 0.1 g/dL and 2.8 g/dL and 4.8 g/dL and 3.6 g/dL | Hemoglobin B/L ([2]; baseline, per patient): 8.8 g/dL and 10.7 g/dL and 6.1 g/dL and 7.8 g/dL and 6 g/dL | Indirect Bilirubin B/L ([2]; baseline, per patient): 25.7 µmol/L and 104.3 µmol/L and 89 µmol/L and 33 µmol/L and 20 µmol/L | Normochromic Normovolumetric Cells B/L ([2]; baseline, per patient): 36% and 67.4% and 65.4% and 63.9% and 61.2% | Serum LDH B/L ([2]; baseline, per patient): 893 U/L and 596 U/L and 458 U/L and 192 U/L and 258 U/L | genotoxicity (erythrocyte micronucleus, VDJ recombination assay) [2]: without erythrocyte micronucleus or VDJ recombination assay evidence of genotoxicity | Increases in Hb achieved ([2]; in two of the five patients): ≥ 1.5 g/dL | Absolute Retic count Nadir [2, 11]: 1.35e+11 L⁻¹ and 1.6e+11 L⁻¹ and 1.16e+11 L⁻¹ and 1.25e+11 L⁻¹ and 7.9e+10 L⁻¹ | Absolute Retic count Wk 12 [2, 11]: 1.35e+11 L⁻¹ and 1.6e+11 L⁻¹ and 1.16e+11 L⁻¹ and 1.45e+11 L⁻¹ and 7.9e+10 L⁻¹ | Annexin-V RBC Nadir [2, 11]: 0% and 0.1% and 0.4% | Annexin-V RBC Wk 12 [2, 11]: 0.5% and 0.7% and 0.1% and 2.6% and 1.1% | EPO Nadir [2, 11]: 117.2 mIU/ml and 17.1 mIU/ml and 131.4 mIU/ml and 180.7 mIU/ml and 71.5 mIU/ml | EPO Wk 12 [2, 11]: 117.2 mIU/ml and 24.4 mIU/ml and 238.5 mIU/ml and 340.5 mIU/ml and 71.5 mIU/ml | HbF Peak [2, 11]: 7.5 g/dL and 0.7 g/dL and 3.5 g/dL and 5.6 g/dL and 4.1 g/dL | HbF Wk 12 [2, 11]: 7.1 g/dL and 0.7 g/dL and 3.4 g/dL and 5.6 g/dL and 3.6 g/dL | Hemoglobin Peak [2, 11]: 9.4 g/dL and 11.8 g/dL and 7.7 g/dL and 8.7 g/dL and 7.6 g/dL | Hemoglobin Wk 12 [2, 11]: 9.4 g/dL and 11.8 g/dL and 6.4 g/dL and 8.7 g/dL and 7.5 g/dL | Indirect Bilirubin Nadir [2, 11]: 27.4 µmol/L and 83.8 µmol/L and 48 µmol/L and 18 µmol/L and 8 µmol/L | Indirect Bilirubin Wk 12 [2, 11]: 30.8 µmol/L and 83.8 µmol/L and 48 µmol/L and 33 µmol/L and 10 µmol/L | Neutrophil count Nadir [2, 11]: 2.82e+09 L⁻¹ and 2.2e+09 L⁻¹ and 5.2e+09 L⁻¹ and 2.1e+09 L⁻¹ and 4.5e+09 L⁻¹ | Neutrophil count Wk 12 [2, 11]: 4.62e+09 L⁻¹ and 2.2e+09 L⁻¹ and 7.9e+09 L⁻¹ and 1.03e+10 L⁻¹ and 5.7e+09 L⁻¹ | Normochromic Normovolumetric Cells Peak [2, 11]: 45.9% and 70% and 70.9% and 72.4% | Normochromic Normovolumetric Cells Wk 12 [2, 11]: 45.9% and 69% and 70.5% and 66.4% and 68.1% | Platelet count Peak [2, 11]: 2.96e+11 L⁻¹ and 1.038e+12 L⁻¹ and 1.265e+12 L⁻¹ and 8.01e+11 L⁻¹ and 1.301e+12 L⁻¹ | Platelet count Wk 12 [2, 11]: 2.81e+11 L⁻¹ and 1.038e+12 L⁻¹ and 1.265e+12 L⁻¹ and 7.56e+11 L⁻¹ and 1.301e+12 L⁻¹ | Serum LDH Nadir [2, 11]: 660 U/L and 541 U/L and 260 U/L and 149 U/L and 204 U/L | Serum LDH Wk 12 [2, 11]: 660 U/L and 556 U/L and 324 U/L and 167 U/L and 204 U/L | immortal phenotype (immortal phenotype): reversed the immortal phenotype | stability in plasma ([3]; hydrolysis and cytidine deaminase): very unstable in plasma | hydrolysis in aqueous solution every 7 hours ([3]; pH 7.4, 4 °C): approximately 2.5% | drug substance stability on storage [4]: no change in appearance, assay or impurities | thyroid carcinoma promotion (thyroid carcinoma): promoted goitrogen induced, but not radiation induced, thyroid carcinoma | reticulocyte counts [5]: decreased | concentrations that deplete DNMT1 without measurable DNA damage or cytotoxicity (DNMT1; in vitro): 0.2 to 0.5 µM | threshold concentration for depleting DNMT1 (DNMT1; ref 15;17-22;48): ~ 0.005 µM | half-life in vitro (DNMT1; ref 27;101): 5 to 16 h | greater decitabine exposure in rodents versus human dose for dose [6]: more than 100 fold | testicular weight, sperm counts and fertility [7]: dose-dependent decrease in testicular weight, decline in sperm counts and reduced fertility | grade 4 AEs [8]: no grade 4 AEs | HbF% increases by HPLC (HbF; decitabine 0.08 mg/kg and […] (cohorts 4 and 5)): increases by HPLC were observed | HbF% increases by HPLC (HbF; other decitabine dose levels (cohorts 1-3)): not with other decitabine dose levels | clinical adverse events attributed to decitabine ([9]; 13 SCD and 5 β-thalassemia intermedia patients, SC decitabine 12-36 weeks): no clinical adverse events attributed to decitabine | platelet count increases to ([9]; SCD study of decitabine): > 8e+11 L⁻¹ | HbF increase from baseline ([9]; parenteral decitabine 2–3X/week, plateau after 12 weeks, SCD patients without HbF response to hydroxyurea): > 10% | platelet count increases to ([9]; sickle cell study, subcutaneous decitabine): ~ 1000 x 10^9/L | cumulative hematologic or non-hematologic toxicities ([10]; 36 weeks, seven subjects): No cumulative hematologic or non-hematologic toxicities | ANC nadir at optimal drug dose ([10]; IV 0.3 mg/kg/day 5 days/week for 2 weeks, 6-week cycles): > 1500 cells/µL | HbF (%) Pre [10, 12]: 3.12 ± 2.75% and 0.8% and 6.8% and 1.4% and 0.6% and 2.9% and 6.2% | Total Hemoglobin Pre [10, 12]: 7.32 ± 0.94 g/dL and 6.2 g/dL and 8.2 g/dL and 6.0 g/dL and 7.2 g/dL and 8.0 g/dL and 7.8 g/dL | HbF (%) Avg [10, 13]: 13.93 ± 2.35% and 12.40 ± 1.25% and 14.55 ± 1.32% and 12.75 ± 2.28% and 10.80 ± 2.05% and 16.42 ± 2.81% and 16.70 ± 2.55% | HbF (%) Max [10, 13]: 18.35 ± 4.46% and 14.4% and 16.3% and 17.2% and 24.6% and 23.2% | Total Hemoglobin Avg [10, 13]: 8.81 ± 0.42 g/dL and 9.05 ± 0.48 g/dL and 9.37 ± 0.60 g/dL and 8.34 ± 0.55 g/dL and 8.28 ± 0.52 g/dL and 8.91 ± 0.57 g/dL and 8.92 ± 0.79 g/dL | Total Hemoglobin Max [10, 13]: 9.73 ± 0.53 g/dL and 9.6 g/dL and 10.3 g/dL and 9.5 g/dL and 9.0 g/dL and 10.4 g/dL | average HbF during the last twenty weeks of treatment ([10]; base-line […] ± 2.75%): 13.93 ± 2.35% | average maximal HbF during the last twenty weeks of treatment ([10]; base-line […] ± 2.75%): 18.35% ± 4.46% | maximal F-cell numbers, average over all 7 subjects [10]: 69 ± 10.12% | period of neutropenia [10]: 1 to 3 days | average hemoglobin ([10]; last 20 weeks, base-line of 7.23 ±2.35 g/dL): 8.81 ± 0.42 g/dL | average ANC during the last 20 weeks of treatment ([10]; pretreatment average 4600 ± 1560, in cells/µL (unit assumed)): 4200 ± 1350 | individual maximal F-cell numbers ([10]; range over subjects): 58 - 87%
